Assay results published in patent US9186358B2, “Combination therapy for treating or preventing an inflammatory skin disorder” (GALDERMA LABORATORIES, L.P., priority 2009, dated 2015).

How the values were obtained:
TPA-induced ear edema = TPA-induced ear edema in mice; type: in vivo, mice (BALB/c ByJ Rj); set-up: Ear Edema Mean: unit not given beside the values; conditions: single topical application with TPA 0.01%, 6 h
Protocol: The edema inducer, TPA, was dissolved in ethanol at 0.01% by weight to obtain a TPA solution (“TPA solution”). […] Positive control compound, betametasone valerate (CD0153), was dissolved in the TPA solution at 0.01% by weight. […] Different compounds at different dosages were tested on 10 groups of animals, each group having 5 mice (see Table 2). [table] The ear thickness of each of the 50 animals was measured at 6 hours after the compound application. After the measurement, the animals were sacrificed by carbon dioxide following a preapproved protocol. The mean of the ear thickness measured from 5 animals in each of the 10 groups was calculated. The anti-inflammatory activity of a test compound was measured by its ability to reduce TPA-induced ear edema, i.e., as the percentage of reduction in ear thickness of animals treated with both the test compound and TPA as compared with that treated with TPA alone.

AA-induced ear edema = experiment: Arachidonic acid (AA)-induced acute ear edema in mice; type: in vivo, mice (BALB/c ByJ Rj); set-up: Edema Mean: unit not given here; conditions: for reduced AA-induced ear edema in mice by up to: single topical application, highest over 1, 2 and 4 h; for Edema Mean / Inhibition vs AA %: topical with AA 4%
Protocol: Positive control compound, indomethacin (CD0016), was dissolved in the AA solution at 5% by weight. […] Different compounds at different dosages were tested on 10 groups of animals, each group having 5 mice (see Table 4). […] After the last measurement, the animals were sacrificed by carbon dioxide following a preapproved protocol. The mean of the ear thickness measured from 5 animals in each of the 10 groups was calculated. The anti-inflammatory activity of a test compound was measured by its ability to reduce AA-induced ear edema, i.e., as the percentage of reduction in ear thickness of animals treated with the test compound and AA as compared with that treated with AA alone.

[1] = CD07805 at 0.2%, 1 h Measurement
[2] = CD07805 at 0.2%, 2 h Measurement
[3] = CD07805 at 0.2%, 4 h Measurement
[4] = CD08100/02 at 0.1%, 1 h Measurement
[5] = CD08100/02 at 0.1%, 2 h Measurement
[6] = CD08100/02 at 0.1%, 4 h Measurement
[7] = CD08100/02 at 0.3%, 1 h Measurement
[8] = CD08100/02 at 0.3%, 2 h Measurement
[9] = CD08100/02 at 0.3%, 4 h Measurement
[10] = CD08100/02 at 1%, 1 h Measurement

Brc1c(NC2=NCCN2)ccc2nccnc12 [CD07805, (5-bromo-quinoxalin-6-yl)-(4,5-dihydro-1H-imidazol-2-yl)-amine]
Ear Edema Mean (TPA-induced ear edema; CD07805 at 0.2%): 8.60
Inhibition vs TPA (%) (TPA-induced ear edema; CD07805 at 0.2%): 46.3%
reduced AA-induced ear edema in mice by up to (AA-induced ear edema; CD07805 at 0.2%): up to 80.8%
Edema Mean (AA-induced ear edema; [1]): 2.8
Inhibition vs AA % (AA-induced ear edema; [1]): 75.9%
Edema Mean (AA-induced ear edema; [2]): 2
Inhibition vs AA % (AA-induced ear edema; [2]): 80.8%
Edema Mean (AA-induced ear edema; [3]): 1.6
Inhibition vs AA % (AA-induced ear edema; [3]): 74.2%

CCCCC(=O)O[C@]1(C(=O)CO)[C@@H](C)C[C@H]2[C@@H]3CCC4=CC(=O)C=C[C@]4(C)[C@@]3(F)[C@@H](O)C[C@@]21C [CD0153, betametasone valerate]
Ear Edema Mean (TPA-induced ear edema; CD0153 at 0.01%): 0.40
Inhibition vs TPA (%) (TPA-induced ear edema; CD0153 at 0.01%): 97.5%

COc1ccc2c(c1)c(CC(=O)O)c(C)n2C(=O)c1ccc(Cl)cc1 [CD0016, indomethacin]
reduced AA-induced ear edema in mice by up to (AA-induced ear edema; CD0016 at 5%): up to 94.2%
Edema Mean (AA-induced ear edema; CD0016 at 5%, 1 h Measurement): 0.8
Inhibition vs AA % (AA-induced ear edema; CD0016 at 5%, 1 h Measurement): 93.1%
Edema Mean (AA-induced ear edema; CD0016 at 5%, 2 h Measurement): 0.6
Inhibition vs AA % (AA-induced ear edema; CD0016 at 5%, 2 h Measurement): 94.2%
Edema Mean (AA-induced ear edema; CD0016 at 5%, 4 h Measurement): 0.4
Inhibition vs AA % (AA-induced ear edema; CD0016 at 5%, 4 h Measurement): 93.5%

O=C(O)Cc1ccccc1Nc1c(Cl)cccc1Cl [CD08100/02, 2-[2-(2,6-dichlorophenylamino)phenyl]acetic acid]
Ear Edema Mean (TPA-induced ear edema; CD08100/02 at 0.1%): 5.80
Inhibition vs TPA (%) (TPA-induced ear edema; CD08100/02 at 0.1%): 63.8%
Ear Edema Mean (TPA-induced ear edema; CD08100/02 at 0.3%): 6.40
Inhibition vs TPA (%) (TPA-induced ear edema; CD08100/02 at 0.3%): 60.0%
Ear Edema Mean (TPA-induced ear edema; CD08100/02 at 1%): 4.80
Inhibition vs TPA (%) (TPA-induced ear edema; CD08100/02 at 1%): 70.0%
reduced AA-induced ear edema in mice by up to (AA-induced ear edema; CD08100/02 at 0.1%): up to 71.2%
Edema Mean (AA-induced ear edema; [4]): 4.2
Inhibition vs AA % (AA-induced ear edema; [4]): 63.8%
Edema Mean (AA-induced ear edema; [5]): 3
Inhibition vs AA % (AA-induced ear edema; [5]): 71.2%
Edema Mean (AA-induced ear edema; [6]): 2
Inhibition vs AA % (AA-induced ear edema; [6]): 67.7%
reduced AA-induced ear edema in mice by up to (AA-induced ear edema; CD08100/02 at 0.3%): ≤ 80.6%
Edema Mean (AA-induced ear edema; [7]): 3.6
Inhibition vs AA % (AA-induced ear edema; [7]): 69.0%
Edema Mean (AA-induced ear edema; [8]): 2.2
Inhibition vs AA % (AA-induced ear edema; [8]): 78.8%
Edema Mean (AA-induced ear edema; [9]): 1.2
Inhibition vs AA % (AA-induced ear edema; [9]): 80.6%
reduced AA-induced ear edema in mice by up to (AA-induced ear edema; CD08100/02 at 1%): ≤ 83.9%
Edema Mean (AA-induced ear edema; [10]): 2
Inhibition vs AA % (AA-induced ear edema; [10]): 82.8%
Edema Mean (AA-induced ear edema; CD08100/02 at 1%, 2 h Measurement): 1
Edema Mean (AA-induced ear edema; CD08100/02 at 1%, 4 h Measurement): 1
